Laboratory results taken from patent US20240010640A1, “ANTAGONISTS OF THE MUSCARINIC ACETYLCHOLINE RECEPTOR M4” (Vanderbilt University, priority 2020, published 2024).

Biological target: T1, Human M4 (Homo sapiens, UniProt P08173)
T1 construct: Human or rat M4 cDNA, along with the chimeric G protein Gqi5, were transfected into Chinese hamster ovary (CHO-K1) cells; expressed in transfected cells; host or cells: CHO-K1 (Chinese hamster ovary, ATCC), stably expressing M4 and Gqi5
T1 sequence (P08173 1-479): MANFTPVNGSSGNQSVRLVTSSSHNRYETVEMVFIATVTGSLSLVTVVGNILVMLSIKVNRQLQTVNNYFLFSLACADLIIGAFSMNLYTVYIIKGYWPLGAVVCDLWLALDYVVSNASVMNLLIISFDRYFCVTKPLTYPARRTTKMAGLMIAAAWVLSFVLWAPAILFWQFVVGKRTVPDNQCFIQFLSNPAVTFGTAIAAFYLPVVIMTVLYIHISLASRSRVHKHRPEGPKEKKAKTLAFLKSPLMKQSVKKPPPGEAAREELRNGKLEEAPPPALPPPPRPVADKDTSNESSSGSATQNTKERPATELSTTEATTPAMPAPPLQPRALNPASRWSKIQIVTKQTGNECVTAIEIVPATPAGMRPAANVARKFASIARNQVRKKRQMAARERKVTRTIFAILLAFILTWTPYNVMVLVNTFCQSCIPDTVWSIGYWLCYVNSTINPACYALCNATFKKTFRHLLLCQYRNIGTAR
Assay: mAChR M4 cell-based functional assay (calcium flux, antagonist mode)
Details: for IC50: Human M4/Gqi5 CHO-K1 cells, decrease of acetylcholine response; for Emin (% ACh maximum at 30 μM): Human M4
Description: Human or rat M4 cDNA, along with the chimeric G protein Gqi5, were transfected into Chinese hamster ovary (CHO-K1) cells purchased from the American Type Culture Collection using Lipofectamine2000. M4/Gqi5/CHO cells were grown in Ham's F-12 medium containing 10% heat-inactivated fetal bovine serum (FBS), 20 mM HEPES, 500 μg/mL G418 sulfate, and 200 μg/mL Hygromycin B.
For high throughput measurement of agonist-evoked increases in intracellular calcium, CHO-K1 cells stably expressing muscarinic receptors were plated in growth medium lacking G418 and hygromycin at 15,000 cells/20 μL/well in Greiner 384-well black-walled, tissue culture (TC)-treated, clear-bottom plates (VWR). Cells were incubated overnight at 37° C. and 5% CO2. The next day, cells were washed using an ELX 405 (BioTek) with assay buffer; the final volume was then aspirated to 20 μL. Next, 20 μL of a 2.3 μM stock of Fluo-4/acetoxymethyl ester (Invitrogen, Carlsbad, CA), prepared as a 2.3 mM stock in DMSO and mixed in a 1:1 ratio with 10% (w/v) Pluronic F-127 and diluted in assay buffer, was added to the wells and the cell plates were incubated for 50 min at 37° C. and 5% CO2. Dye was removed by washing with the ELX 405 and the final volume was aspirated to 20 μL. Compound master plates were formatted in a 10 point concentration-response curve (CRC) format (1:3 dilutions) in 100% DMSO with a starting concentration of 10 or 1 mM using a BRAVO liquid handler (Agilent). Test compound CRCs were then transferred to daughter plates (240 nL) using the Echo acoustic plate reformatter (Labcyte, Sunnyvale, CA) and then diluted into assay buffer (40 μL) to a 2× stock using a Thermo Fisher Combi (Thermo Fisher Scientific, Waltham, MA).
Calcium flux was measured using the Functional Drug Screening System (FDSS) 6000 or 7000 (Hamamatsu Corporation, Tokyo, Japan) as an increase in the fluorescent static ratio. Compounds were applied to cells (20 μL, 2×) using the automated system of the FDSS at 2 seconds into the protocol and the data were collected at 1 Hz. At 143 s, 10 μL of an EC20 concentration of the muscarinic receptor agonist acetylcholine was added (5×), followed by the addition of 12 μL of an […] concentration of acetylcholine at the 268 s time point (5×). Agonist activity was analyzed as a concentration-dependent increase in calcium mobilization upon compound addition. Positive allosteric modulator activity was analyzed as a concentration-dependent increase in the EC20 acetylcholine response. Antagonist activity was analyzed as a concentration-dependent decrease in the EC80 acetylcholine response; for the purposes of the tables herein, an IC50 (inhibitory concentration 50) was calculated as a concentration-dependent decrease of the response elicited by an […] concentration of acetylcholine. Concentration-response curves were generated using a four-parameter logistical equation in XLFit curve fitting software (IDBS, Bridgewater, NJ) for Excel (Microsoft, Redmond, WA) or Prism (GraphPad Software, Inc., San Diego, CA) or the Dotmatics software platform (Dotmatics, Bishop's Stortford, UK).
Compounds were synthesized as described above. Activity (IC50 and Emin) was determined in the mAChR M4 cell-based functional assay as described above and the data are shown in Table 1.

IC50 [nM] | Emin (% ACh maximum at 30 μM) [%] | SMILES
81 | 5 | [2H]C([2H])(C1CCOCC1)N1C[C@H]2C[C@H](Nc3ccc(-c4ccn(C)c(=O)c4)nn3)C[C@H]2C1 [A1, 1-methyl-4-(6-(((3aR,5s,6aS)-2-((tetrahydro-2H-pyran-4-yl)methyl-d2)octahydrocyclopenta[c]pyrrol-5-yl)amino)pyridazin-3-yl)pyridin-2(1H)-one]
34 | 4 | [2H]C([2H])(C1CCOCC1)N1C[C@H]2C[C@H](Nc3ccc(-c4ccc(=O)n(C)c4)nn3)C[C@H]2C1 [A2, 1-methyl-5-(6-(((3aR,5s,6aS)-2-((tetrahydro-2H-pyran-4-yl)methyl-d2)octahydrocyclopenta[c]pyrrol-5-yl)amino)pyridazin-3-yl)pyridin-2(1H)-one]
5.9 | 4 | [2H]C([2H])(C1CCOCC1)N1C[C@H]2C[C@H](Nc3ccc(-c4cccn(C)c4=O)nn3)C[C@H]2C1 [A3, 1-methyl-3-(6-(((3aR,5s,6aS)-2-((tetrahydro-2H-pyran-4-yl)methyl-d2)octahydrocyclopenta[c]pyrrol-5-yl)amino)pyridazin-3-yl)pyridin-2(1H)-one]
15.5 | 5 | Cn1cccc(-c2ccc(N[C@H]3C[C@@H]4CN(CC5CCOCC5)C[C@@H]4C3)nn2)c1=O [A4, 1-methyl-3-(6-(((3aR,5s,6aS)-2-((tetrahydro-2H-pyran-4-yl)methyl)octahydrocyclopenta[c]pyrrol-5-yl)amino)pyridazin-3-yl)pyridin-2(1H)-one]
3.8 | 4 | O=c1ccc(-c2ccc(N[C@H]3C[C@@H]4CN(CC5CCOCC5)C[C@@H]4C3)nn2)cn1C(F)F [A5, 1-(difluoromethyl)-5-(6-(((3aR,5s,6aS)-2-((tetrahydro-2H-pyran-4-yl)methyl)octahydrocyclopenta[c]pyrrol-5-yl)amino)pyridazin-3-yl)pyridin-2(1H)-one]
5.9 | 9 | O=c1cc(-c2ccc(N[C@H]3C[C@@H]4CN(CC5CCOCC5)C[C@@H]4C3)nn2)ccn1C(F)F [A6, 1-(difluoromethyl)-4-(6-(((3aR,5s,6aS)-2-((tetrahydro-2H-pyran-4-yl)methyl)octahydrocyclopenta[c]pyrrol-5-yl)amino)pyridazin-3-yl)pyridin-2(1H)-one]
514 | 7 | Cn1cc(-c2ccc(N[C@H]3C[C@@H]4CN(CC5CCOCC5)C[C@@H]4C3)nn2)cnc1=O [A7, 1-methyl-5-(6-(((3aR,5s,6aS)-2-((tetrahydro-2H-pyran-4-yl)methyl)octahydrocyclopenta[c]pyrrol-5-yl)amino)pyridazin-3-yl)pyrimidin-2(1H)-one]
136 | 8 | Cc1cc(-c2ccc(N[C@H]3C[C@@H]4CN(CC5CCOCC5)C[C@@H]4C3)nn2)c(=O)[nH]n1 [A8, 6′-methyl-6-(((3aR,5s,6aS)-2-((tetrahydro-2H-pyran-4-yl)methyl)octahydrocyclopenta[c]pyrrol-5-yl)amino)-[3,4′-bipyridazin]-3′(2′H)-one]
27.4 | 4 | Cn1cc(C(F)(F)F)cc(-c2ccc(N[C@H]3C[C@@H]4CN(CC5CCOCC5)C[C@@H]4C3)nn2)c1=O [A9, 1-methyl-3-(6-(((3aR,5s,6aS)-2-((tetrahydro-2H-pyran-4-yl)methyl)octahydrocyclopenta[c]pyrrol-5-yl)amino)pyridazin-3-yl)-5-(trifluoromethyl)pyridin-2(1H)-one]
129 | 4 | Cn1cc(-c2ccc(N[C@H]3C[C@@H]4CN(CC5CCCOC5)C[C@@H]4C3)nn2)ccc1=O (stereo partly drawn) [A10, 1-methyl-5-(6-(((3aR,5s,6aS)-2-((tetrahydro-2H-pyran-3-yl)methyl)octahydrocyclopenta[c]pyrrol-5-yl)amino)pyridazin-3-yl)pyridin-2(1H)-one]
3.5 | 3 | Cn1cc(-c2ccc(N[C@H]3C[C@@H]4CN(CC5CCCCC5)C[C@@H]4C3)nn2)ccc1=O [A11, 5-(6-(((3aR,5s,6aS)-2-(cyclohexylmethyl)octahydrocyclopenta[c]pyrrol-5-yl)amino)pyridazin-3-yl)-1-methylpyridin-2(1H)-one]
762 | 9 | Cn1cc(-c2ccc(N[C@H]3C[C@@H]4CN(Cc5ccccn5)C[C@@H]4C3)nn2)ccc1=O [A12, 1-methyl-5-(6-(((3aR,5s,6aS)-2-(pyridin-2-ylmethyl)octahydrocyclopenta[c]pyrrol-5-yl)amino)pyridazin-3-yl)pyridin-2(1H)-one]
1 | 3 | Cn1cc(-c2ccc(N[C@H]3C[C@@H]4CN(CCC(C)(C)C)C[C@@H]4C3)nn2)ccc1=O [A13, 5-(6-(((3aR,5s,6aS)-2-(3,3-dimethylbutyl)octahydrocyclopenta[c]pyrrol-5-yl)amino)pyridazin-3-yl)-1-methylpyridin-2(1H)-one]
28.8 | 3 | [2H]C([2H])(C1CCOCC1)N1C[C@H]2C[C@H](Nc3ccc(-c4ccc(=O)n(CC5CC5)c4)nn3)C[C@H]2C1 [A14, 1-(cyclopropylmethyl)-5-(6-(((3aR,5s,6aS)-2-((tetrahydro-2H-pyran-4-yl)methyl-d2)octahydrocyclopenta[c]pyrrol-5-yl)amino)pyridazin-3-yl)pyridin-2(1H)-one]
19.6 | 4 | O=c1ccc(-c2ccc(N[C@H]3C[C@@H]4CN(CC5CCOCC5)C[C@@H]4C3)nn2)cn1CC1CC1 [A15, 1-(cyclopropylmethyl)-5-(6-(((3aR,5s,6aS)-2-((tetrahydro-2H-pyran-4-yl)methyl)octahydrocyclopenta[c]pyrrol-5-yl)amino)pyridazin-3-yl)pyridin-2(1H)-one]
1.9 | 4 | Cc1cc(-c2ccc(N[C@H]3C[C@@H]4CN(CC5CCOCC5)C[C@@H]4C3)nn2)cn(C)c1=O [A16, 1,3-dimethyl-5-(6-(((3aR,5s,6aS)-2-((tetrahydro-2H-pyran-4-yl)methyl)octahydrocyclopenta[c]pyrrol-5-yl)amino)pyridazin-3-yl)pyridin-2(1H)-one]
13 | 3 | Cn1cc(-c2ccc(N[C@H]3C[C@@H]4CN(CC5CCOCC5)C[C@@H]4C3)nn2)cc(F)c1=O [A17, 3-fluoro-1-methyl-5-(6-(((3aR,5s,6aS)-2-((tetrahydro-2H-pyran-4-yl)methyl)octahydrocyclopenta[c]pyrrol-5-yl)amino)pyridazin-3-yl)pyridin-2(1H)-one]
